Data on 8 compounds can be found in patent US10793525B2, “13-cis-RAMBA retinamides that degrade MNKs for treating cancer” (UNIVERSITY OF MARYLAND, BALTIMORE, priority 2014, dated 2020).

Like-named read-outs stand apart in the source and are kept apart here.

In data set [1] the test system is LNCaP human prostate carcinoma cells. The following applies: previously reported in Ramamurthy V et al., read-out: GI50s LNCaP; cited from earlier work.
For data set [2], the system named is CWR22Rv1 human prostate carcinoma cells. The conditions noted are these: previously reported in Ramamurthy V et al., read-out: GI50s CWR22Rv1; cited from earlier work.
Data set [3] relates to PC-3 human prostate carcinoma cells. The following applies: PC-3 cells; previously reported in Ramamurthy V et al.; read-out: GI50s PC-3; cited from earlier work.
The test system of data set [4] is MCF-7 human breast cancer cells. Nature of the data set: MTT cell proliferation assay, MCF-7. Format: cell-based. The following applies: MCF-7 cells; for IC50: Homo sapiens, MCF7, MTT, SEM < 10%, read-out: GI50s MCF-7. From the text:
(§1) MCF-7, MDA-MB-231, MDA-MB-468 and SKBR-3 human breast cancer cells and LNCaP, PC-3, and CWR22Rv1 human prostate carcinoma cells (American Type Culture Collection, Manassas, Va., USA) were maintained in RPMI 1640 media (Gibco-Life Technologies, Grand Island, N.Y., USA) supplemented with 10% fetal bovine serum and 1% penicillin/streptomycin. Western blotting was done as mentioned previously,^8, 13b using the following antibodies: AR, Bad, Bax, Bcl-2, eIF4E, Mnk1, Mnk-2, N-cadherin, PARP, peIF4E^ser209 purchased from Cell Signaling Technology, Danvers, Mass., USA. Anti-Mnk2 was purchased from Sigma-Aldrich and normal rabbit IgG, cyclin D1 was from Santa Cruz Biotechnology, CA, USA.
(§2) Cells were plated (2500 cells/well) in 96 well plates and treated with or without specified compounds as described previously.^8a, 12b
(§3) The clinically relevant retinoids, ATRA and 4-HPR and the Mnk inhibitor, cercosporamide were used as comparators in the assays.
(In general: Tetrazolium dyes change colour on reduction, which living cells bring about.)

Data set [5] has as its system MDA-MB-231 human breast cancer cells. As to the kind of experiment: MTT cell proliferation assay, MDA-MB-231. Format: cell-based. The conditions noted are these: MDA-MB-231 cells, SEM < 10%, read-out: GI50s MDA-MB-231.
Excerpt: as §1, §2, §3

The subject of data set [6] is MDA-MB-468 human breast cancer cells. Nature of the data set: MTT cell proliferation assay, MDA-MB-468. The format is cell-based. The conditions noted are these: MDA-MB-468 cells, SEM < 10%, read-out: GI50s MDA-MB-468.
Excerpt: as §1, §2, §3

Data set [7] relates to SKBR-3 human breast cancer cells. Nature of the data set: MTT cell proliferation assay, SKBR-3. The following applies: SK-BR-3, SKBR-3 cells, SEM < 10%, read-out: GI50s SKBR-3. Format: cell-based.
Excerpt: as §1, §2, §3

Data set [8] relates to LNCaP human prostate carcinoma cells. As to the kind of experiment: MTT cell proliferation assay, LNCaP. The format is cell-based. The following applies: SEM < 10%, read-out: GI50s LNCaP.
Excerpt: as §1, §2, §3
(§4) The PC-3 cell line was the least sensitive to all the compounds tested.

For data set [9], the system named is CWR22Rv1 human prostate carcinoma cells. Nature of the data set: MTT cell proliferation assay, CWR22Rv1. Format: cell-based. The following applies: SEM < 10%, read-out: GI50s CWR22Rv1.
Excerpt: as §1, §2, §3, §4

Data set [10] deals with PC-3 human prostate carcinoma cells. Nature of the data set: MTT cell proliferation assay, PC-3. The following applies: PC-3 cells, SEM < 10%, read-out: GI50s PC-3. Format: cell-based.
Excerpt: as §1, §2, §3, §4

For data set [11], the system named is Mnk1 and 2, peIF4E, eIF4E and cPARP. Nature of the data set: Western blot of lysates from MCF-7, MDA-MB-231 and MDA-MB-468 cells. The format is cell-based, human. The conditions noted are these: MCF-7, MDA-MB-231, MDA-MB-468 cells, 24 hours.
Excerpt: as §1
As we previously reported, the anti-proliferative effects of the 1st generation MNKDAs in BC cells was due to degradation of Mnk1/2 with subsequent depletion of peIF4E and induction of apoptosis.^8a To determine if these compounds modulate Mnk1/2 and related oncogenic proteins, the inventors performed western blot of lysates from MCF-7, MDA-MB-231 and MDA-MB-468 human breast cancer cells treated with Compounds 16, 20, and 22, or with vehicle (DMSO, negative control), or Compound 6 (positive control). Equal protein concentrations from MCF-7 (FIG. 3A), MDA-MB-231 (FIG. 3B) and MDA-MB-468 (FIG. 3C) cells treated for 24 hours with Compounds 16, 20 and 22 at the various concentrations as indicated and Compound 6 (20 μmol/L) were separated by SDS-PAGE and western blots probed with antibodies to Mnk1 and 2, peIF4E, eIF4E and cPARP. Vehicle treated cells were included as control and all blots were reprobed for GAPDH for loading control.
(A western blot detects proteins with antibodies after separation by electrophoresis.)

Data set [12] deals with fAR, Mnk1/2, peIF4E, cyclin D1 and cleaved PARP. Nature of the data set: Western blot of lysates from LNCaP cells. The format is cell-based, human. The conditions noted are these: 0.6-20 μM, 24 hours.
Excerpt: as §1
Equal protein concentrations from LNCaP cells treated with Compounds 16, 20 and 22 at different concentrations (0.6-20 μM) for 24 hours were separated by SDS-PAGE and western blots probed with antibodies to fAR, Mnk1/2, peIF4E, cyclin D1 and cleaved PARP. Vehicle treated cells were included as a control and all blots were reprobed for β-actin for loading control.

A further data set relates to PC-3 cells. Nature of the data set: Wound-healing assay, PC-3 cell migration. The format is cell-based, human. The following applies: 5 μM, 24 hours. Here is the method: Wound healing assay and matrigel invasion assay were also conducted as described previously using highly metastatic PC-3 cells following treatment with 5 μM of RRs for 24 h.^8a,26
Based on previous studies with closely related compound,^8 the inhibitory effects of Compounds 16, 20 and 22 on cell migration were evaluated, using the human metastatic PC cell line, PC-3 by wound-healing assay. PC-3 cells (5×10^5 cells/well) were seeded on Boyden chamber, grown to confluence and scratches made at experimental tome zero. The cells were treated with indicated compounds (5 μM each) for 24 hours. Representative photomicrographs of initial and final wounds are shown at 100× magnification. […] At 24 hours after cell monolayers were wounded, control cells had completely filled in the scratched area.

The test system of data set [13] is MCF-7, MDA-MB-231, MDA-MB-468 and SKBR-3 human breast cancer cells. As to the kind of experiment: MTT cell proliferation assay, four breast cancer cell lines together. Format: cell-based. The conditions noted are these: range across the four BC cell lines, read-out: GI50s, range over the BC cell lines.
Excerpt: as §1, §2, §3

Consider `CC(O)(CS(=O)(=O)c1ccc(F)cc1)C(=O)Nc1ccc(C#N)c(C(F)(F)F)c1` (stereo not drawn) [Casodex], for which the figures for the IC50 in data set [1], in data set [2] and in data set [3] were 2.61 µM, 3.81 µM and 9.15 µM, respectively.
With `CC1=C(/C=C/C(C)=C/C=C/C(C)=C/C(=O)Nc2ccc(O)cc2)C(C)(C)CCC1` [Compound 4-HPR, N-(4-hydroxyphenyl) retinamide, reference compound], the IC50 is 4.65 µM in data set [4]; 11.1 µM in data set [5]; 6.02 µM in data set [6]; 3.98 µM in [7]; 2.69 µM in data set [1]; 3.23 µM in data set [2]. The IC50 in data set [3] was 3.54 µM.
Take `CC1=C(/C=C/C(C)=C/C=C/C(C)=C\C(=O)Nc2ccccc2)C(C)(C)CCC1n1ccnc1` (stereo not drawn) [Compound 16, (2Z,4E,6E,8E)-9-(3-(1H-imidazol-1-yl)-2,6,6-trimethylcyclohex-1-en-1-yl)-3,7-dimethyl-N-phenylnona-2,4,6,8-tetraenamide]: the IC50 in data set [4] came out at 1.9 µM; in data set [5], 1.74 µM; in data set [6], 2.54 µM; in [7], 1.73 µM; in data set [8], 2.69 µM; in data set [9], 1.28 µM. The figures for the IC50 in data set [10] and in [13] were 8.91 µM and 1.74 to 2.54 µM, respectively. The “expression of total eIF4E” value in [11] and in data set [12] was “no noticeable effects” in each case. Also, the “expressions of Mnk1, Mnk2 and peIF4E” value in [11] is “significantly and dose-dependently, reduced”. In [11], the “formation of c-PARP (apoptosis)” value is on record as “dose-dependent formation of c-PARP”. Moreover, in data set [12], the “cleaved PARP (c-PARP)” value is given as “induced cleaved PARP”. In addition, the “cyclin D1” value in [12] is listed as “significant depletion”. The “expressions of fAR, Mnk1 and Mnk2” value in [12] was “significantly and in a dose-dependent fashion, reduced”. Besides, in the data set on PC-3 cells, the “migration of PC-3 cells” value is “significantly inhibited migration”.
For the compound `CC1=C(/C=C/C(C)=C/C=C/C(C)=C\C(=O)Nc2ccc(O)cc2)C(C)(C)CCC1n1ccnc1` (stereo not drawn) [Compound 17, (2Z,4E,6E,8E)-9-(3-(1H-imidazol-1-yl)-2,6,6-trimethylcyclohex-1-en-1-yl)-N-(4-hydroxyphenyl)-3,7-dimethylnona-2,4,6,8-tetraenamide], the IC50 in data set [4] worked out at 1.99 µM; in data set [5], 13.1 µM; in data set [6], 6.83 µM; in data set [7] it was 3.89 µM; in [8] it was 3.54 µM; in [9], 3.89 µM. Further, the IC50 in [10] worked out at 11.7 µM.
On to `CC1=C(/C=C/C(C)=C/C=C/C(C)=C\C(=O)Nc2ccccc2O)C(C)(C)CCC1n1ccnc1` (stereo not drawn) [Compound 18, (2Z,4E,6E,8E)-9-(3-(1H-imidazol-1-yl)-2,6,6-trimethylcyclohex-1-en-1-yl)-N-(2-hydroxyphenyl)-3,7-dimethylnona-2,4,6,8-tetraenamide], for which the IC50 in [4] was found to be 1.09 µM; in data set [5], 4.67 µM; in data set [6], 3.03 µM; in data set [7], 3.89 µM; in data set [8] it was 3.23 µM; in [9], 2.23 µM. Also, the IC50 in data set [10] was 15.5 µM.
In the case of `CC1=C(/C=C/C(C)=C/C=C/C(C)=C\C(=O)Nc2ccc(F)cc2)C(C)(C)CCC1n1ccnc1` (stereo not drawn) [Compound 19, (2Z,4E,6E,8E)-9-(3-(1H-imidazol-1-yl)-2,6,6-trimethylcyclohex-1-en-1-yl)-N-(4-fluorophenyl)-3,7-dimethylnona-2,4,6,8-tetraenamide], the IC50 in data set [4] came to 0.4 µM; in [5] it was 4.95 µM; in data set [6], 4.57 µM; in data set [7], 25.1 µM; in [8] it was 3.89 µM; in data set [10], 30.2 µM. In addition, the “fold more potent than Compound 16 (GI50, MCF-7)” value in data set [4] (versus Compound 16) is reported as roughly 4.8 fold.
On to `CC1=C(/C=C/C(C)=C/C=C/C(C)=C\C(=O)NCc2ccccc2)C(C)(C)CCC1n1ccnc1` (stereo not drawn) [Compound 21, (2Z,4E,6E,8E)-9-(3-(1H-imidazol-1-yl)-2,6,6-trimethylcyclohex-1-en-1-yl)-N-benzyl-3,7-dimethylnona-2,4,6,8-tetraenamide], for which the IC50 in data set [4] was 9.77 µM; in [5] it was 5.88 µM; in data set [6], 7.24 µM; in data set [7], 10.7 µM; in data set [13] it was 5.88 to 10.7 µM.
Usually melting point stands for the temperature of the solid-liquid transition. Compound `CC1=C(/C=C/C(C)=C/C=C/C(C)=C\C(=O)NCCc2ccc(O)cc2)C(C)(C)CC=C1c1cncnc1` [Compound 40, (2Z,4E,6E,8E)-N-(4-hydroxyphenethyl)-3,7-dimethyl-9-(2,6,6-trimethyl-3-(pyrimidin-5-yl)cyclohexa-1,3-dien-1-yl)nona-2,4,6,8-tetraenamide] registered a melting point of 115 to 117 °C. The IC50 in [4] is 2.96 µM. In data set [5], the IC50 stood at 14.5 µM. Further, in data set [6], the IC50 was 23.4 µM. Also, the IC50 in data set [7] worked out at 24 µM.
